Structures can show the parent of a compound that is named as a salt. Bounds are passed on as bounds.

For this assay, the system named is LPS-induced TNF-α release in peripheral blood mononuclear cells (PBMCs). Description: In vitro determination of PDE4 inhibitory activity in the PBMCs assay (LPS-induced TNF-α release). The assay is classed as cell-based, human. The note with it: PBMC; human PBMCs, LPS 3 ng/ml, 18 hours, TNF-α by ELISA; read-out: PDE4 inhibition (IC50, 50% inhibition of LPS-induced TNF-α release). In a few lines: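 Cryopreserved human PBMCs (10^5 cells/well) pre-incubated 30 min with compound (10^−12 to 10^−6 M or 10^−3 to 10^−7 M), then stimulated with LPS 3 ng/ml for 18 h at 37 °C. TNF-α in medium by ELISA; IC50 as mean ± 95% confidence limits.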
Background: An ELISA detects its analyte on a solid surface through an enzyme-linked reagent.
In the case of `COC(=O)c1cc(CN2CCCC2C(=O)O[C@@H](Cc2c(Cl)c[n+]([O-])cc2Cl)c2ccc(OC(F)F)c(OCC3CC3)c2)oc1C` (stereo partly drawn) [Compound 15, 3,5-dichloro-4-((2S)-2-(3-(cyclopropylmethoxy)-4-(difluoromethoxy)phenyl)-2-(1-((4-(methoxycarbonyl)-5-methylfuran-2-yl)methyl)pyrrolidine-2-carbonyloxy)ethyl)pyridine 1-oxide], the IC50 (commonly the midpoint of a concentration-inhibition curve) was in the range of 1 to 10 nM. The same measure for `CN(C)S(=O)(=O)c1cccc(S(=O)(=O)N2CCCC[C@H]2C(=O)O[C@@H](Cc2c(Cl)c[n+]([O-])cc2Cl)c2ccc(OC(F)F)c(OCC3CC3)c2)c1` [Compound 113, 3,5-dichloro-4-((S)-2-(3-(cyclopropylmethoxy)-4-(difluoromethoxy)phenyl)-2-((S)-1-(3-(N,N-dimethylsulfamoyl)phenylsulfonyl)piperidine-2-carbonyloxy)ethyl)pyridine 1-oxide]: less than 0.1 nM.

For the compound `CN(C)C(=O)c1cccc(S(=O)(=O)N2CCN(CC(=O)O[C@@H](Cc3c(Cl)c[n+]([O-])cc3Cl)c3ccc(OC(F)F)c(OCC4CC4)c3)CC2)c1` [Compound 121, (S)-3,5-dichloro-4-(2-(3-(cyclopropylmethoxy)-4-(difluoromethoxy)phenyl)-2-(2-(4-(3-(dimethylcarbamoyl)phenylsulfonyl)piperazin-1-yl)acetoxy)ethyl)pyridine 1-oxide], the IC50 was 0.1 to 1 nM. `COc1ccc(S(=O)(=O)N2CCSC2C(=O)O[C@@H](Cc2c(Cl)c[n+]([O-])cc2Cl)c2ccc(OC(F)F)c(OCC3CC3)c2)cc1C(=O)N1CCN(C)CC1` (stereo partly drawn) [Compound 127, 3,5-dichloro-4-((2S)-2-(3-(cyclopropylmethoxy)-4-(difluoromethoxy)phenyl)-2-(3-(4-methoxy-3-(4-methylpiperazine-1-carbonyl)phenylsulfonyl)thiazolidine-2-carbonyloxy)ethyl)pyridine 1-oxide]: the IC50 lay within 0.1 to 1 nM. Under `Nc1ccc(S(=O)(=O)N2CCS[C@H]2C(=O)O[C@@H](Cc2c(Cl)c[n+]([O-])cc2Cl)c2ccc(OC(F)F)c(OCC3CC3)c2)cc1` [Compound 150, 4-((S)-2-((S)-3-(4-aminophenylsulfonyl)thiazolidine-2-carbonyloxy)-2-(3-(cyclopropylmethoxy)-4-(difluoromethoxy)phenyl)ethyl)-3,5-dichloropyridine 1-oxide] stands less than 0.1 nM. Under `O=C(O[C@@H](Cc1c(Cl)c[n+]([O-])cc1Cl)c1ccc(OC(F)F)c(OCC2CC2)c1)C1SCCN1S(=O)(=O)c1ccsc1` (stereo partly drawn) [Compound 85, 3,5-dichloro-4-((2S)-2-(3-(cyclopropylmethoxy)-4-(difluoromethoxy)phenyl)-2-(3-(thiophen-3-ylsulfonyl)thiazolidine-2-carbonyloxy)ethyl)pyridine 1-oxide] stands less than 0.1 nM; under `COc1cc(C)ccc1S(=O)(=O)N1CCS[C@H]1C(=O)O[C@@H](Cc1c(Cl)c[n+]([O-])cc1Cl)c1ccc(OC(F)F)c(OCC2CC2)c1` [Compound 106, 3,5-dichloro-4-((S)-2-(3-(cyclopropylmethoxy)-4-(difluoromethoxy)phenyl)-2-((S)-3-(2-methoxy-4-methylphenylsulfonyl)thiazolidine-2-carbonyloxy)ethyl)pyridine 1-oxide], less than 0.1 nM.

Regarding `CS(=O)(=O)N(CCN1CCOCC1)c1cc(OCC2CC2)cc(C(=O)N2CCSC2C(=O)O[C@@H](Cc2c(Cl)c[n+]([O-])cc2Cl)c2ccc(OC(F)F)c(OCC3CC3)c2)c1` (stereo partly drawn) [Compound 49, 3,5-dichloro-4-((2S)-2-(3-(cyclopropylmethoxy)-4-(difluoromethoxy)phenyl)-2-(3-(3-(cyclopropylmethoxy)-5-(N-(2-morpholinoethyl)methylsulfonamido)benzoyl)thiazolidine-2-carbonyloxy)ethyl)pyridine 1-oxide formate], the IC50 was in the range of 0.1 to 1 nM. For `CN(C)C(=O)c1cccc(C(=O)N2CCS[C@H]2C(=O)O[C@@H](Cc2c(Cl)c[n+]([O-])cc2Cl)c2ccc(OC(F)F)c(OCC3CC3)c2)c1` [Compound 187, 3,5-dichloro-4-((S)-2-(3-(cyclopropylmethoxy)-4-(difluoromethoxy)phenyl)-2-((S)-3-(3-(dimethylcarbamoyl)benzoyl)thiazolidine-2-carbonyloxy)ethyl)pyridine 1-oxide], the IC50 lay in the range of 0.1 to 1 nM. The same measure for `O=C(O[C@@H](Cc1c(Cl)c[n+]([O-])cc1Cl)c1ccc(OC(F)F)c(OCC2CC2)c1)C1SCCN1S(=O)(=O)c1cccs1` (stereo partly drawn) [Compound 62, 3,5-dichloro-4-((2S)-2-(3-(cyclopropylmethoxy)-4-(difluoromethoxy)phenyl)-2-(3-(thiophen-2-ylsulfonyl)thiazolidine-2-carbonyloxy)ethyl)pyridine 1-oxide]: 0.1 to 1 nM; for `O=C(O[C@@H](Cc1c(Cl)c[n+]([O-])cc1Cl)c1ccc(OC(F)F)c(OCC2CC2)c1)C1SCCN1C(=O)c1cncs1` (stereo partly drawn) [Compound 38, 3,5-dichloro-4-((2S)-2-(3-(cyclopropylmethoxy)-4-(difluoromethoxy)phenyl)-2-(3-(thiazole-5-carbonyl)thiazolidine-2-carbonyloxy)ethyl)pyridine 1-oxide]: less than 0.1 nM; for `CN(C)C(=O)c1ccc(S(=O)(=O)N2CCSC2C(=O)O[C@@H](Cc2c(Cl)c[n+]([O-])cc2Cl)c2ccc(OC(F)F)c(OCC3CC3)c2)cc1` (stereo partly drawn) [Compound 125, 3,5-dichloro-4-((2S)-2-(3-(cyclopropylmethoxy)-4-(difluoromethoxy)phenyl)-2-(3-(4-(dimethylcarbamoyl)phenylsulfonyl)thiazolidine-2-carbonyloxy)ethyl)pyridine 1-oxide]: 0.1 to 1 nM. The same measure for `Cc1nc(C)c(S(=O)(=O)N2CCS[C@H]2C(=O)O[C@@H](Cc2c(Cl)c[n+]([O-])cc2Cl)c2ccc(OC(F)F)c(OCC3CC3)c2)s1` [Compound 107, 3,5-dichloro-4-((S)-2-(3-(cyclopropylmethoxy)-4-(difluoromethoxy)phenyl)-2-((S)-3-(2,4-dimethylthiazol-5-ylsulfonyl)thiazolidine-2-carbonyloxy)ethyl)pyridine 1-oxide]: less than 0.1 nM; for `O=C(O[C@@H](Cc1c(Cl)c[n+]([O-])cc1Cl)c1ccc(OC(F)F)c(OCC2CC2)c1)C1SCCN1S(=O)(=O)c1cccc(Cl)c1` (stereo partly drawn) [Compound 63, 3,5-dichloro-4-((2S)-2-(3-(3-chlorophenylsulfonyl)thiazolidine-2-carbonyloxy)-2-(3-(cyclopropylmethoxy)-4-(difluoromethoxy)phenyl)ethyl)pyridine 1-oxide]: 0.1 to 1 nM; for `O=C(O[C@@H](Cc1c(Cl)c[n+]([O-])cc1Cl)c1ccc(OC(F)F)c(OCC2CC2)c1)[C@@H]1CCCCN1S(=O)(=O)c1ccccc1` [Compound 114, 3,5-dichloro-4-((S)-2-(3-(cyclopropylmethoxy)-4-(difluoromethoxy)phenyl)-2-((S)-1-(phenylsulfonyl)piperidine-2-carbonyloxy)ethyl)pyridine 1-oxide]: 0.1 to 1 nM. The same measure for `COc1ccc(C(=O)N2CCC[C@H]2C(=O)O[C@@H](Cc2c(Cl)c[n+]([O-])cc2Cl)c2ccc(OC(F)F)c(OCC3CC3)c2)cc1OS(C)(=O)=O` [Compound 30, 3,5-dichloro-4-((S)-2-(3-(cyclopropylmethoxy)-4-(difluoromethoxy)phenyl)-2-((S)-1-(4-methoxy-3-(methylsulfonyloxy)benzoyl)pyrrolidine-2-carbonyloxy)ethyl)pyridine-1-oxide]: 1 to 10 nM.

The record behind these values is patent US9931327B2, “Derivatives of 1-phenyl-2-pyridinyl alkyl alcohols as phosphodiesterase inhibitors” (Chiesi Farmaceutici S.p.A., priority 2011, dated 2018).
